1 compound from publication PMC4012458, “Action of Clathrodin and Analogues on Voltage-Gated Sodium Channels” (Marine Drugs, 2014) can be followed below.

What is called inhibition is how much of the control response was suppressed. As usually defined, the IC50 is the midpoint of a concentration-inhibition curve. Low values mean greater potency in that assay, high ones weaker potency in that assay.

SMILES strings stand for the structures.

The target of one assay is T1, NaV1.5 (Homo sapiens, UniProt Q14524).
T1 construct: gene SCN5A
As to the kind of experiment: two-electrode voltage clamp in Xenopus oocytes, […] inhibition at […]. It is filed as cell-based. Background: In two-electrode clamp one electrode senses voltage and the other passes current.

The target of a further assay is T2, NaV1.4 (Rattus norvegicus, UniProt P15390).
T2 construct: gene Scn4a
As to the kind of experiment: two-electrode voltage clamp in Xenopus oocytes, concentration-response; also QPatch patch clamp. The assay is classed as cell-based.

T2 sequence (P15390 whole entry): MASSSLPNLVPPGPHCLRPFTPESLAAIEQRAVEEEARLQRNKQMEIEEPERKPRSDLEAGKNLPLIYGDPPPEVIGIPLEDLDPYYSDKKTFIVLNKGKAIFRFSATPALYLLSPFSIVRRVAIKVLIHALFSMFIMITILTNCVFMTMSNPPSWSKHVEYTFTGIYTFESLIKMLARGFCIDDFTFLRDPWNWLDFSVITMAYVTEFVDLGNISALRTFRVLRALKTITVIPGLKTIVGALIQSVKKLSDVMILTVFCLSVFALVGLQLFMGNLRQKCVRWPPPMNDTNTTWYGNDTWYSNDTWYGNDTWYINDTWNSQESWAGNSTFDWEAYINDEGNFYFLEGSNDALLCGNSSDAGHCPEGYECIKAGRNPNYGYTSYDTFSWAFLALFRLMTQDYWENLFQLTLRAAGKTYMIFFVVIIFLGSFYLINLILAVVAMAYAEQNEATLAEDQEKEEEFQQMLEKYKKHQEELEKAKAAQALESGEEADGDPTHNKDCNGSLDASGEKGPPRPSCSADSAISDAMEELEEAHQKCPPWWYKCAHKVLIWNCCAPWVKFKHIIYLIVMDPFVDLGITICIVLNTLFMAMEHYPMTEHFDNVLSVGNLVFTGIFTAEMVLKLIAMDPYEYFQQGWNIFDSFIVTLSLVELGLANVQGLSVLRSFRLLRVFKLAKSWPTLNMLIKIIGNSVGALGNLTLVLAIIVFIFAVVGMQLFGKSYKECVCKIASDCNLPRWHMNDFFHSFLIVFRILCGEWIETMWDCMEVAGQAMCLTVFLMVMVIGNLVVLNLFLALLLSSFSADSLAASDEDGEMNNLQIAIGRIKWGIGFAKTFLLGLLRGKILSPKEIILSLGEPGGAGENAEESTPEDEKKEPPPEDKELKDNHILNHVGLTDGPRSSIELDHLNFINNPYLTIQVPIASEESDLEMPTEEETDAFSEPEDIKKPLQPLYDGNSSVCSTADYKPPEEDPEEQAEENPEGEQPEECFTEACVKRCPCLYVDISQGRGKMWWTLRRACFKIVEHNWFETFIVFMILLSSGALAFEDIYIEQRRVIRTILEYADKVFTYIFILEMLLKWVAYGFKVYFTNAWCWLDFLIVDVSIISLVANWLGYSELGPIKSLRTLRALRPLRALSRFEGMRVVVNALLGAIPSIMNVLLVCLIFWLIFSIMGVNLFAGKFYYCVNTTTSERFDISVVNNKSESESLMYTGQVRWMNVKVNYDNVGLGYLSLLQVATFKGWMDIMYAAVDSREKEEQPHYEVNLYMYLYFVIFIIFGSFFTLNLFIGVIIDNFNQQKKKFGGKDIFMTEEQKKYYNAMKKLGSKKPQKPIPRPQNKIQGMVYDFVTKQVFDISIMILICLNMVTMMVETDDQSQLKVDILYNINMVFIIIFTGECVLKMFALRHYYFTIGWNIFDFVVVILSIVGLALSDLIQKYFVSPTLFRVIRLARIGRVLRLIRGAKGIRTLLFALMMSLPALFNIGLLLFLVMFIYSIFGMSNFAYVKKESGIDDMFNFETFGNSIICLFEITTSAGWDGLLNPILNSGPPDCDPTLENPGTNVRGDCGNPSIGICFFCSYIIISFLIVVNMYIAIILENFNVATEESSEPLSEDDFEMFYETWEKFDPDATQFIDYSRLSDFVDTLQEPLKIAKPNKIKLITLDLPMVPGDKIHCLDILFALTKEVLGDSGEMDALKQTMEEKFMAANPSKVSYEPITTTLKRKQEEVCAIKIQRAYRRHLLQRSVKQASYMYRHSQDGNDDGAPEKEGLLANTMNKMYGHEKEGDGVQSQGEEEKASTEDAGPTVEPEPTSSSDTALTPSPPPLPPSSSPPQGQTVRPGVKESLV
T1 sequence (Q14524 whole entry): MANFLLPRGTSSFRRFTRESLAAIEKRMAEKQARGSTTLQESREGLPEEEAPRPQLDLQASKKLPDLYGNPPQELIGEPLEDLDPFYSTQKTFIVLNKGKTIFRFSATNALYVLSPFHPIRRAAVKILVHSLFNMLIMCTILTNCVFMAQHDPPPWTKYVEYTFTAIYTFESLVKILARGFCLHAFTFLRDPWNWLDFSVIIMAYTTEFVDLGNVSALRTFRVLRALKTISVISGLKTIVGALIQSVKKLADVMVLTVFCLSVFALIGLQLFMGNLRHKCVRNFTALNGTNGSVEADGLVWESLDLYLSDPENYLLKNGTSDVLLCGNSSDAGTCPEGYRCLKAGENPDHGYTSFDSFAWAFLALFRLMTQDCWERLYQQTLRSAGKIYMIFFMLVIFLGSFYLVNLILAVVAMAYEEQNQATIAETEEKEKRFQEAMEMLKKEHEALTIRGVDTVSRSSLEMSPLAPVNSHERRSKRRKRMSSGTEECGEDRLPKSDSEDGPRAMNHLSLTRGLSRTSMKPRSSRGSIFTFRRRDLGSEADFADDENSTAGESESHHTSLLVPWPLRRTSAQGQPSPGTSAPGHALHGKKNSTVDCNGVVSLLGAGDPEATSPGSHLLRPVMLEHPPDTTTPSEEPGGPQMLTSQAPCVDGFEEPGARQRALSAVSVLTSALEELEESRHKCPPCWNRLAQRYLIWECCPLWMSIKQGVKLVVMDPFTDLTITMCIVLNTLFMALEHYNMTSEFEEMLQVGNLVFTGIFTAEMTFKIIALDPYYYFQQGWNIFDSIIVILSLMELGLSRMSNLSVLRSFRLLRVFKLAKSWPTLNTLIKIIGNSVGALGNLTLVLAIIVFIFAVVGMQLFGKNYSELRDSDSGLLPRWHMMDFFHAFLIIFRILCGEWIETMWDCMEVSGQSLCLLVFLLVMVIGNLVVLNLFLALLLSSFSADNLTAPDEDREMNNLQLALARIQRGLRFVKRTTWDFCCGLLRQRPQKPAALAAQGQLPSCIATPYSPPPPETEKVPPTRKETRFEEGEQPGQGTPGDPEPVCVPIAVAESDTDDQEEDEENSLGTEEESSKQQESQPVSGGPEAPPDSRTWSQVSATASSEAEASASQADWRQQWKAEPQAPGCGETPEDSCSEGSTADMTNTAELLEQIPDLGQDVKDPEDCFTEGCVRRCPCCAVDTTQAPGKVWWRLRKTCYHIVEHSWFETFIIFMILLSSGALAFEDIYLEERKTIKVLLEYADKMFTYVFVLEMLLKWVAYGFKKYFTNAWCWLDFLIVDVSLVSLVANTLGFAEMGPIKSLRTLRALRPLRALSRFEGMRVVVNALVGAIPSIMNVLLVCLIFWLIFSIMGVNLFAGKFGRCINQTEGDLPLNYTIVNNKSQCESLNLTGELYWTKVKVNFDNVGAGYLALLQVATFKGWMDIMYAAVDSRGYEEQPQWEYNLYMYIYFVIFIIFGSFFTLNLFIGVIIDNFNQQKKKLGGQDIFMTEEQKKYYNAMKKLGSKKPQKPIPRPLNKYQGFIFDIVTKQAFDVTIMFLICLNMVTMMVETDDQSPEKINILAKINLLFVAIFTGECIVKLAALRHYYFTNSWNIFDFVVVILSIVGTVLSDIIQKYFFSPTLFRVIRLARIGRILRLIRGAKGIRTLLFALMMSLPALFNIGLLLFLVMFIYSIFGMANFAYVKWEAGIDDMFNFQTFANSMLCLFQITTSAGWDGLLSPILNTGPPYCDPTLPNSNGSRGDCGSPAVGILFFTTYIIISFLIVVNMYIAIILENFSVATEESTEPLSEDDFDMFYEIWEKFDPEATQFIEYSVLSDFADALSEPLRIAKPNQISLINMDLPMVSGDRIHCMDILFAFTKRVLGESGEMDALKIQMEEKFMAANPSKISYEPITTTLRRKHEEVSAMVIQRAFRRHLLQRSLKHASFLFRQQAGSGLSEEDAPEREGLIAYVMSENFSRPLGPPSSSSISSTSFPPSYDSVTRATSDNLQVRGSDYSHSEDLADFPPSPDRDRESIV

Compound `Nc1nc(-c2cccc(NC(=O)c3c[nH]c4ccccc34)c2)c[nH]1` [compound 9, Compound 9] registered an inhibition at 1 µM on NaV1.5 of 19.6 ± 1.3%. At NaV1.4, this compound gave an IC50 of 3.5 ± 0.9 µM.
